Results: patent US6777412B2 (priority 1990, dated 2004)
Read-outs that look alike come from different tables or passages of the source. Marks after values point to notes of the source that are not given here.

Assays:
Assay type in all cases: in vivo
Venturia inaequalis = assay: Foliar fungal disease test on plants: Venturia inaequalis (Vi)
Method: (§1) The compounds were tested against a variety of foliar fungal diseases of plants. The technique employed was as follows.
(§2) The plants were grown in John Innes Potting Compost (No.1 or 2) in 4 cm diameter minipots. The test compounds were formulated either by bead milling with aqueous Dispersol T or as a solution in acetone or acetone/ethanol which was diluted to the required concentration immediately before use. For the foliage diseases, the formulations (100 ppm active ingredient except where otherwise indicated) were sprayed onto the foliage and applied to the roots of the plants in the soil. The sprays were applied to maximum retention and the root drenches to a final concentration equivalent to approximately 40 ppm a.i. in dry soil. Tween 20, to give a final concentration of 0.05%, was added when the sprays were applied to cereals.
(§3) For most of the tests the compound was applied to the soil (roots) and to the foliage (by spraying) one or two days before the plant was inoculated with the disease. An exception was the test on Erysiphe graminis in which the plants were inoculated 24 hours before treatment. Foliar pathogens were applied by spray as spore suspensions onto the leaves of test plants. After inoculation, the plants were put into an appropriate environment to allow infection to proceed and then incubated until the disease was ready for assessment. The period between inoculation and assessment varied from four to fourteen days according to the disease and environment.
(§4) The disease control vas recorded by the following grading:
(§5) 3=trace-5% of disease on untreated plants
(§6) 2=6-25% of disease on untreated plants
(§7) 1=26-59% of disease on untreated plants
(§8) 0=60-100% of disease on untreated plants

Puccinia recondita = assay: Foliar fungal disease test on plants: Puccinia recondita (Pr)
Method: as §1, §2, §3, §4, §5, §6, §7, §8

Pyricularia oryzae = tested on: Pyricularia oryzae
Septoria nodorum = assay: Foliar fungal disease test on plants: Septoria nodorum (Sn)
Method: as §1, §2, §3, §4, §5, §6, §7, §8

Plasmopara viticola = assay: Foliar fungal disease test on plants: Plasmopara viticola (Pv)
Method: as §1, §2, §3, §4, §5, §6, §7, §8

[1] = tested on: Erysiphe graminis tritici; assay: Foliar fungal disease test on plants: Erysiphe graminis tritici (Egt)
Method: as §1, §2, §3, §4, §5, §6, §7, §8
Egt Erysiphe graminis tritici

[2] = tested on: Phytophthora infestans lycopersici
[3] = 100 ppm active ingredient foliar spray plus root drench (approx. 40 ppm a.i. in dry soil), one or two days before inoculation
[4] = 100 ppm active ingredient foliar spray plus root drench (approx. 40 ppm a.i. in dry soil), plants inoculated 24 hours before treatment

Structure (SMILES) | disease control grading, Vi (Venturia inaegualis) (Venturia inaequalis; [3]) | disease control grading, Pr (Puccinia recondita) (Puccinia recondita; [3]) | disease control grading, Po (Pyricularia oryzae) (Pyricularia oryzae; [3]) | disease control grading, Sn (Septoria nodorum) (Septoria nodorum; [3]) | disease control grading, Pv (Plasmopara viticola) (Plasmopara viticola; [3]) | disease control grading, Egt (Erysiphe graminis tritici) [1, 4] | disease control grading, Pil (Phytophthora infestans lycopersici) [2, 3] | disease control grading, Vi (Venturia inaegualis) (Venturia inaequalis; 10 ppm foliar application only) | disease control grading, Pr (Puccinia recondita) (Puccinia recondita; 100 ppm foliar application only) | disease control grading, Po (Pyricularia oryzae) (Pyricularia oryzae; 10 ppm foliar application only) | disease control grading, Sn (Septoria nodorum) (Septoria nodorum; 10 ppm foliar application only) | disease control grading, Pv (Plasmopara viticola) (Plasmopara viticola; 10 ppm foliar application only) | disease control grading, Pil (Phytophthora infestans lycopersici) ([2]; 10 ppm foliar application only) | disease control grading, Egt (Erysiphe graminis tritici) ([1]; 10 ppm foliar application only) | disease control grading, Pr (Puccinia recondita) (Puccinia recondita; 10 ppm foliar application only)
CO/C=C(/C(=O)OC)c1ccccc1Oc1cc(OCCOc2ccccc2C#N)ncn1 [396 of Table I] | 3 (3=trace-5% of disease on untreated plants) | 4 (4=no disease) | 4 (4=no disease) | 4 (4=no disease) | 4 (4=no disease) | 4 (4=no disease) |  |  |  |  |  |  |  |  | 
CCOc1ccccc1Nc1cc(Oc2ccccc2/C(=C\OC)C(=O)OC)ncn1 [401 of Table I] | 4 (4=no disease) | 4 (4=no disease) | 0 (0=60-100% of disease on untreated plants) | 4 (4=no disease) | 4 (4=no disease) | 4 (4=no disease) | 3 (3=trace-5% of disease on untreated plants) |  |  |  |  |  |  |  | 
CO/C=C(/C(=O)OC)c1ccccc1Oc1cc(OCc2ccncn2)ncn1 [250 of Table I] |  |  | 2 (2=6-25% of disease on untreated plants) | 4 (4=no disease) | 4 (4=no disease) | 4 (4=no disease) |  |  |  |  |  |  |  |  | 
CO/C=C(/C(=O)OC)c1ccccc1Oc1cc(Cc2ccccc2)ncn1 [9 of Table I] | 4 (4=no disease) | 0 (0=60-100% of disease on untreated plants) | 4 (4=no disease) | 4 (4=no disease) | 4 (4=no disease) | 4 (4=no disease) | 4 (4=no disease) |  |  |  |  |  |  |  | 
CO/C=C(/C(=O)OC)c1ccccc1Oc1cc(OC/C=C/c2ccccc2C#N)ncn1 [395 of Table I] | 4 (4=no disease) | 4 (4=no disease) | 4 (4=no disease) | 3 (3=trace-5% of disease on untreated plants) | 4 (4=no disease) | 4 (4=no disease) |  |  |  |  |  |  |  |  | 
CO/C=C(/C(=O)OC)c1ccccc1Oc1cc(O/N=C(\C)c2ccccc2)ncn1 [403 of Table I] |  |  |  |  |  |  |  | 4^a (4=no disease) | 4^b (4=no disease) | 0^a (0=60-100% of disease on untreated plants) | 0^a (0=60-100% of disease on untreated plants) | 4^a (4=no disease) | 1^a (1=26-59% of disease on untreated plants) | 0^a (0=60-100% of disease on untreated plants) | 
CO/C=C(/C(=O)OC)c1ccccc1Oc1cc(OCc2cccnc2)ncn1 [229 of Table I] | 4 (4=no disease) | 4 (4=no disease) | 4 (4=no disease) | 4 (4=no disease) | 4 (4=no disease) | 4 (4=no disease) | 3 (3=trace-5% of disease on untreated plants) |  |  |  |  |  |  |  | 
CCCCOc1ccccc1Nc1cc(Oc2ccccc2/C(=C\OC)C(=O)OC)ncn1 [402 of Table I] | 4 (4=no disease) | 4 (4=no disease) | 0 (0=60-100% of disease on untreated plants) | 4 (4=no disease) | 4 (4=no disease) | 4 (4=no disease) | 3 (3=trace-5% of disease on untreated plants) |  |  |  |  |  |  |  | 
CO/C=C(/C(=O)OC)c1ccccc1Oc1cc(-c2c(N)oc3ccccc23)ncn1 [400 of Table I] | 4 (4=no disease) | 4 (4=no disease) | 0 (0=60-100% of disease on untreated plants) | 4 (4=no disease) | 4 (4=no disease) | 4 (4=no disease) | 4 (4=no disease) |  |  |  |  |  |  |  | 
CO/C=C(/C(=O)OC)c1ccccc1Oc1cc(OCCOc2c(F)cccc2C#N)ncn1 [397 of Table I] | 4 (4=no disease) | 4 (4=no disease) | 4 (4=no disease) | 3 (3=trace-5% of disease on untreated plants) | 4 (4=no disease) | 4 (4=no disease) | 3 (3=trace-5% of disease on untreated plants) |  |  |  |  |  |  |  | 
CO/C=C(/C(=O)OC)c1ccccc1Oc1cc(-c2sc(-c3ccccc3O)nc2C)ncn1 [399 of Table I] |  |  |  |  |  |  |  | 3^a (3=trace-5% of disease on untreated plants) |  | 0^a (0=60-100% of disease on untreated plants) | 0^a (0=60-100% of disease on untreated plants) | 4^a (4=no disease) | 0^a (0=60-100% of disease on untreated plants) | 0^a (0=60-100% of disease on untreated plants) | 0^a (0=60-100% of disease on untreated plants)
CO/C=C(/C(=O)OC)c1ccccc1Oc1cc(OCc2ccccn2)ncn1 [222 of Table I] | 4 (4=no disease) | 4 (4=no disease) | 4 (4=no disease) | 3 (3=trace-5% of disease on untreated plants) | 4 (4=no disease) | 4 (4=no disease) | 0 (0=60-100% of disease on untreated plants) |  |  |  |  |  |  |  | 
CO/C=C(/C(=O)OC)c1ccccc1Oc1cc(O/N=C(\C)c2cnccn2)ncn1 [404 of Table I] | 4 (4=no disease) | 4 (4=no disease) | 3 (3=trace-5% of disease on untreated plants) | 3 (3=trace-5% of disease on untreated plants) | 4 (4=no disease) | 4 (4=no disease) | 1 (1=26-59% of disease on untreated plants) |  |  |  |  |  |  |  | 
CO/C=C(/C(=O)OC)c1ccccc1Oc1cc(OCc2cccnn2)ncn1 [271 of Table I] | 0 (0=60-100% of disease on untreated plants) | 4 (4=no disease) | 2 (2=6-25% of disease on untreated plants) | 2 (2=6-25% of disease on untreated plants) | 0 (0=60-100% of disease on untreated plants) | 3 (3=trace-5% of disease on untreated plants) | 2 (2=6-25% of disease on untreated plants) |  |  |  |  |  |  |  | 
CO/C=C(/C(=O)OC)c1ccccc1Oc1cc(OCc2ccc(F)cc2)ncn1 [405 of Table I] | 4 (4=no disease) | 4 (4=no disease) | 4 (4=no disease) | 0 (0=60-100% of disease on untreated plants) | 4 (4=no disease) | 4 (4=no disease) | 4 (4=no disease) |  |  |  |  |  |  |  | 
CO/C=C(/C(=O)OC)c1ccccc1Oc1cc(OCc2ccncc2)ncn1 [236 of Table I] | 4 (4=no disease) | 4 (4=no disease) | 2 (2=6-25% of disease on untreated plants) | 3 (3=trace-5% of disease on untreated plants) | 4 (4=no disease) | 3 (3=trace-5% of disease on untreated plants) | 4 (4=no disease) |  |  |  |  |  |  |  | 
